Experimental data reported in the kinase profiling compilation of Christmann-Franck et al. (2016).

What was measured:
Assay in all cases: radiometric filter-binding kinase assay
[1] = biological target: BRSK2 (human) (UniProt Q8IWQ3)
[2] = biological target: MAPK12 (human) (UniProt P53778)
[3] = biological target: CAMKK2 (human) (UniProt Q96RR4)
[4] = biological target: SYK (human) (UniProt P43405)
[5] = biological target: EEF2K (human) (UniProt O00418)
[6] = biological target: BRSK1 (human) (UniProt Q8TDC3)
[7] = biological target: IKBKE (human) (UniProt Q14164)
[8] = biological target: MAP3K5 (human) (UniProt Q99683)
[9] = biological target: MKNK1 (human) (UniProt Q9BUB5)
[10] = biological target: MELK (human) (UniProt Q14680)
[11] = biological target: ERBB4 (human) (UniProt Q15303)
[12] = biological target: IGF1R (human) (UniProt P08069)
Chain of IGF1R (human) (P08069 whole entry, looked up): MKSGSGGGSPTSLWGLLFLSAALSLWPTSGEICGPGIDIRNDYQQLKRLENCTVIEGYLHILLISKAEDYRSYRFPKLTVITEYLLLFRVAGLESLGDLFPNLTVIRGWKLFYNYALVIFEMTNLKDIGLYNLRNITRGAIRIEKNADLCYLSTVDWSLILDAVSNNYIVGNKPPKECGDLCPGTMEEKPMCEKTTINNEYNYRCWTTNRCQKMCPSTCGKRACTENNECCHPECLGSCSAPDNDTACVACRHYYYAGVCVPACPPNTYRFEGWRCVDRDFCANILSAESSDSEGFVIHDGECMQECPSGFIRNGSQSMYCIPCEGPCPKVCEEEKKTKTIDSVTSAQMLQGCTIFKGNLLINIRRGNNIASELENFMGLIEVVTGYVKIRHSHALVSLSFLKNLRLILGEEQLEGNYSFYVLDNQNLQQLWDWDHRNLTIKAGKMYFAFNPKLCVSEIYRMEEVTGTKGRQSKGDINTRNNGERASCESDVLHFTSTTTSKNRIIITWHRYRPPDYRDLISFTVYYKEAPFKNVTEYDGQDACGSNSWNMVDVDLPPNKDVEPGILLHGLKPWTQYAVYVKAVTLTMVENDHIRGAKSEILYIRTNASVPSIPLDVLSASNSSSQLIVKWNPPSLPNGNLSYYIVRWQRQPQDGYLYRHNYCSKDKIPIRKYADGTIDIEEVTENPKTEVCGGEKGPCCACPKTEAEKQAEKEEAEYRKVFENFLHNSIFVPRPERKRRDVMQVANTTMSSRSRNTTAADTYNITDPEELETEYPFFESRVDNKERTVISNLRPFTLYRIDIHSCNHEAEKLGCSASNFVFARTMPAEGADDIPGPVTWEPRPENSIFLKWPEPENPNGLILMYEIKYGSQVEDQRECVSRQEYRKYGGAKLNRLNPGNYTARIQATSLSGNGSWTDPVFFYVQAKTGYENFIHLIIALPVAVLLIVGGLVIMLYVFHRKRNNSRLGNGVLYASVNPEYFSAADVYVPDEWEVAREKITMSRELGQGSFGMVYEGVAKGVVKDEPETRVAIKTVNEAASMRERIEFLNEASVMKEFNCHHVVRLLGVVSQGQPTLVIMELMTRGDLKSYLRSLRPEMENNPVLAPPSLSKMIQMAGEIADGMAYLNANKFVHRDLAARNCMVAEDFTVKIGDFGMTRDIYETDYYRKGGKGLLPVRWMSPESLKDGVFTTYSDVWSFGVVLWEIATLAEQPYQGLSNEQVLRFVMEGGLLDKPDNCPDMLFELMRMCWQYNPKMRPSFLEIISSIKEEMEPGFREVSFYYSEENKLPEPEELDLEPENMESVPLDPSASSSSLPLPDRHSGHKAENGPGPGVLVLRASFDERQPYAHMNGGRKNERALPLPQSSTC

[13] = biological target: DAPK1 (human) (UniProt P53355)
[14] = biological target: MAPK3 (human) (UniProt P27361)
Chain of MAPK3 (human) (P27361 whole entry, looked up): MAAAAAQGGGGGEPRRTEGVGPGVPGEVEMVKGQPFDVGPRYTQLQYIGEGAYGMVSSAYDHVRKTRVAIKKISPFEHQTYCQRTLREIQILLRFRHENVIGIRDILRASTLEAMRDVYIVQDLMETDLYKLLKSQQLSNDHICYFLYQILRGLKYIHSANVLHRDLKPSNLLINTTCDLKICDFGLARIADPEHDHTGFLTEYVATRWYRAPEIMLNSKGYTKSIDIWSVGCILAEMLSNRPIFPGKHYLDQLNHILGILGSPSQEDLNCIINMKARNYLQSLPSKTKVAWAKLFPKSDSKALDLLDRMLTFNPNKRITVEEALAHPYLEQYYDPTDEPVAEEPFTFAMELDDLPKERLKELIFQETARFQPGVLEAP

[15] = biological target: EPHB4 (human) (UniProt P54760)
[16] = biological target: MARK1 (human) (UniProt Q9P0L2)
[17] = biological target: MAPK13 (human) (UniProt O15264)
[18] = biological target: PIM3 (human) (UniProt Q86V86)
[19] = biological target: PAK7 (human) (UniProt Q9P286)
[20] = biological target: STK3 (human) (UniProt Q13188)
[21] = biological target: MAP2K2 (human) (UniProt P36507)
[22] = system: SGK1 (human), O00141 [S422D]
[23] = biological target: PRKACA (human) (UniProt P17612)
[24] = system: PRKAA1 or PRKAA2 (rat); settings: accession and sequence are those of the human protein
[25] = biological target: MAPKAPK2 (human) (UniProt P49137)
[26] = biological target: PHKG1 (human) (UniProt Q16816)
[27] = biological target: PRKCZ (human) (UniProt Q05513)
Chain of PRKCZ (human) (Q05513 whole entry, looked up): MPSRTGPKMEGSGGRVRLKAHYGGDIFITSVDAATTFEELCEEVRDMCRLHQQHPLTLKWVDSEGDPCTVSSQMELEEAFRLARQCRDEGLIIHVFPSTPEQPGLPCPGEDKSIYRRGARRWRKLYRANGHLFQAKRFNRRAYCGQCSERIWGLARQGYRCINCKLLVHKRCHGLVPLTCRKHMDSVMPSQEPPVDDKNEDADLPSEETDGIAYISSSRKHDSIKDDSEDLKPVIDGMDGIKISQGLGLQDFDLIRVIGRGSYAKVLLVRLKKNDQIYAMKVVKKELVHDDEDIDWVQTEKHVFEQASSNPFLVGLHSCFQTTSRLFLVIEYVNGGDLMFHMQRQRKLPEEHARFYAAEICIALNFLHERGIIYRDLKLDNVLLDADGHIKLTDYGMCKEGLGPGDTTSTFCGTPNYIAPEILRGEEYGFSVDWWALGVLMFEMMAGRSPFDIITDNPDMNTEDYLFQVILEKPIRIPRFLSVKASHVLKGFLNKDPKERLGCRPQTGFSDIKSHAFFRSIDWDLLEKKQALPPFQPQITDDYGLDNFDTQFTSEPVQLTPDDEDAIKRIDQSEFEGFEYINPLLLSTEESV

[28] = biological target: FGFR1 (human) (UniProt P11362)
Chain of FGFR1 (human) (P11362 whole entry, looked up): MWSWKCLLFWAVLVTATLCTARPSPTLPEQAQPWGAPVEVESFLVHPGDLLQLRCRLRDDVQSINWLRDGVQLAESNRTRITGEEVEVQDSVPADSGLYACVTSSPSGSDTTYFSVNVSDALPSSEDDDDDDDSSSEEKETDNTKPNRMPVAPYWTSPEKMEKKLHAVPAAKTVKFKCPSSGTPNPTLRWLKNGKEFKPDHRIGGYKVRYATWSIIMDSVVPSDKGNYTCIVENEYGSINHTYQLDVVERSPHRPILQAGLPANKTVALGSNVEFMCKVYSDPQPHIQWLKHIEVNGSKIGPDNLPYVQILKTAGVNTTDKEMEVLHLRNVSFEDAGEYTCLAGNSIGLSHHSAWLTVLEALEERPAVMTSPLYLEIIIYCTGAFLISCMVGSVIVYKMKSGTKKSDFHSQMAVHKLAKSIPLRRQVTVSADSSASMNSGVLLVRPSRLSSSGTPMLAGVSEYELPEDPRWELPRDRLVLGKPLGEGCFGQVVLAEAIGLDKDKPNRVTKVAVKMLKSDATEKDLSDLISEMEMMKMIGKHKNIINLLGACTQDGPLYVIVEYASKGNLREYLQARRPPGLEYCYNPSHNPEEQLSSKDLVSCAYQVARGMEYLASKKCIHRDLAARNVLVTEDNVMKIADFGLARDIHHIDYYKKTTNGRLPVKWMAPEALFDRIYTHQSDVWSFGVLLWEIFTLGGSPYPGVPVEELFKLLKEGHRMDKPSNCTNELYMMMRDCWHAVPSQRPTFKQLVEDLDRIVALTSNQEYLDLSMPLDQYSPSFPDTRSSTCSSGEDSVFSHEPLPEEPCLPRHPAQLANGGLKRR

[29] = biological target: HIPK3 (human) (UniProt Q9H422)
[30] = biological target: GSK3B (human) (UniProt P49841)
[31] = biological target: MAPK9 (human) (UniProt P45984)
[32] = biological target: MAP2K6 (human) (UniProt P52564)
[33] = biological target: DYRK1A (human) (UniProt Q13627)
[34] = biological target: PIM1 (human) (UniProt P11309)
[35] = biological target: MAPKAPK5 (human) (UniProt Q8IW41)
Chain of MAPKAPK5 (human) (Q8IW41 whole entry, looked up): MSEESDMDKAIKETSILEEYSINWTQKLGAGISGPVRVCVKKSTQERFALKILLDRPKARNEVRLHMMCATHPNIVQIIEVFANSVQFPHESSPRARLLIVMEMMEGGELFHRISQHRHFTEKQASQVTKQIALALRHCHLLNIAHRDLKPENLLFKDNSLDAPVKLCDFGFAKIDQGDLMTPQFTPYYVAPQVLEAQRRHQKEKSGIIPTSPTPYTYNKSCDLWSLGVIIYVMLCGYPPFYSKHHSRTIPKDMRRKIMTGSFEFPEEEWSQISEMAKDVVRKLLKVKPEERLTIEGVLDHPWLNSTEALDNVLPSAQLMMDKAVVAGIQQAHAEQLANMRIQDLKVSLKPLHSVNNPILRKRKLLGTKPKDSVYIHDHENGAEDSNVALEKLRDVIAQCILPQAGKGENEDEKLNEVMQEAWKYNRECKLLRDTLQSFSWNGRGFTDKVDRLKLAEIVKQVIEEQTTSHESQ

[36] = biological target: PIM2 (human) (UniProt Q9P1W9)
Chain of PIM2 (human) (Q9P1W9 whole entry, looked up): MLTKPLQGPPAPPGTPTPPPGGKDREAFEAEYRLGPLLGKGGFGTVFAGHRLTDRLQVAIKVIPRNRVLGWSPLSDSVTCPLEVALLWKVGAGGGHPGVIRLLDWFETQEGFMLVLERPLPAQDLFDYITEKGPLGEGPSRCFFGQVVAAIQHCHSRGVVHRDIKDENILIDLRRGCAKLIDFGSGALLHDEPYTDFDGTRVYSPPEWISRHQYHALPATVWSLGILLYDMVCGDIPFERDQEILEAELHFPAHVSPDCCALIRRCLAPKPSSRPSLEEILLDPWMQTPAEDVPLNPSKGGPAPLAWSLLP

Chain of CAMKK2 (human) (Q96RR4 whole entry, looked up): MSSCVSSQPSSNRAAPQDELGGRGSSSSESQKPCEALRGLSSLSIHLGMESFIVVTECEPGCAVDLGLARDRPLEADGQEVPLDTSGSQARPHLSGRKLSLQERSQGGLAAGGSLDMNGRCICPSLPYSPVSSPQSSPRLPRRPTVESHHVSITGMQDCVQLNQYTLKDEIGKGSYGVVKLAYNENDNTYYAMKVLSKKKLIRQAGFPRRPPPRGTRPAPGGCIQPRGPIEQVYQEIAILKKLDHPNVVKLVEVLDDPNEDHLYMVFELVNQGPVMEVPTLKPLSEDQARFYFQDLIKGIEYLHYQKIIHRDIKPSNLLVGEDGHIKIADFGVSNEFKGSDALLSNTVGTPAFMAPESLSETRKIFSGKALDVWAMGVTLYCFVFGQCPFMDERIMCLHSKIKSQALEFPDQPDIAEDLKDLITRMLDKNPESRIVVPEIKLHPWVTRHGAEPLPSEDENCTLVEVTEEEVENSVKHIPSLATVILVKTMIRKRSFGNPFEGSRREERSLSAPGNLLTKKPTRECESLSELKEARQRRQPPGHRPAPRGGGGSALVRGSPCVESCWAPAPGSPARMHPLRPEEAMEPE

residual activity ([1]; compound 0.1 µM): 86%
residual activity ([1]; compound 1.0 µM): 97%
residual activity ([1]; compound 10.0 µM): 90%
residual activity ([2]; compound 0.1 µM): 84%
residual activity ([2]; compound 1.0 µM): 95%
residual activity ([2]; compound 10.0 µM): 92%
residual activity ([3]; compound 0.1 µM): 92%
residual activity ([3]; compound 1.0 µM): 83%
residual activity ([3]; compound 10.0 µM): 44%
residual activity ([4]; compound 0.1 µM): 109%
residual activity ([4]; compound 1.0 µM): 93%
residual activity ([4]; compound 10.0 µM): 67%
residual activity ([5]; compound 0.1 µM): 102%
residual activity ([5]; compound 1.0 µM): 106%
residual activity ([5]; compound 10.0 µM): 117%
residual activity ([6]; compound 1.0 µM): 94%
residual activity ([6]; compound 10.0 µM): 87%
residual activity ([7]; compound 0.1 µM): 90%
residual activity ([7]; compound 1.0 µM): 102%
residual activity ([7]; compound 10.0 µM): 83%
residual activity ([8]; compound 1.0 µM): 98%
residual activity ([8]; compound 10.0 µM): 100%
residual activity ([9]; compound 0.1 µM): 92%
residual activity ([9]; compound 1.0 µM): 100%
residual activity ([9]; compound 10.0 µM): 97%
residual activity ([10]; compound 0.1 µM): 97%
residual activity ([10]; compound 1.0 µM): 74%
residual activity ([10]; compound 10.0 µM): 52%
residual activity ([11]; compound 1.0 µM): 80%
residual activity ([11]; compound 10.0 µM): 86%
residual activity ([12]; compound 0.1 µM): 92%
residual activity ([12]; compound 1.0 µM): 96%
residual activity ([12]; compound 10.0 µM): 25%
residual activity ([13]; compound 1.0 µM): 68%
residual activity ([13]; compound 10.0 µM): 25%
residual activity ([14]; compound 0.1 µM): 88%
residual activity ([14]; compound 1.0 µM): 105%
residual activity ([14]; compound 10.0 µM): 117%
residual activity ([15]; compound 1.0 µM): 96%
residual activity ([15]; compound 10.0 µM): 103%
residual activity ([16]; compound 1.0 µM): 85%
residual activity ([16]; compound 10.0 µM): 74%
residual activity ([17]; compound 0.1 µM): 91%
residual activity ([17]; compound 1.0 µM): 78%
residual activity ([17]; compound 10.0 µM): 85%
residual activity ([18]; compound 0.1 µM): 95%
residual activity ([18]; compound 1.0 µM): 55%
residual activity ([18]; compound 10.0 µM): 24%
residual activity ([19]; compound 0.1 µM): 79%
residual activity ([19]; compound 1.0 µM): 91%
residual activity ([19]; compound 10.0 µM): 72%
residual activity ([20]; compound 0.1 µM): 85%
residual activity ([20]; compound 1.0 µM): 96%
residual activity ([20]; compound 10.0 µM): 92%
residual activity ([21]; compound 1.0 µM): 109%
residual activity ([21]; compound 10.0 µM): 90%
residual activity ([22]; compound 0.1 µM): 89%
residual activity ([22]; compound 1.0 µM): 94%
residual activity ([22]; compound 10.0 µM): 84%
residual activity ([23]; compound 0.1 µM): 80%
residual activity ([23]; compound 1.0 µM): 106%
residual activity ([23]; compound 10.0 µM): 84%
residual activity ([24]; compound 0.1 µM): 83%
residual activity ([24]; compound 1.0 µM): 88%
residual activity ([24]; compound 10.0 µM): 60%
residual activity ([25]; compound 0.1 µM): 90%
residual activity ([25]; compound 1.0 µM): 92%
residual activity ([25]; compound 10.0 µM): 59%
residual activity ([26]; compound 0.1 µM): 96%
residual activity ([26]; compound 1.0 µM): 53%
residual activity ([26]; compound 10.0 µM): 14%
residual activity ([27]; compound 0.1 µM): 78%
residual activity ([27]; compound 1.0 µM): 105%
residual activity ([27]; compound 10.0 µM): 103%
residual activity ([28]; compound 0.1 µM): 103%
residual activity ([28]; compound 1.0 µM): 91%
residual activity ([28]; compound 10.0 µM): 68%
residual activity ([29]; compound 0.1 µM): 88%
residual activity ([29]; compound 1.0 µM): 92%
residual activity ([29]; compound 10.0 µM): 73%
residual activity ([30]; compound 1.0 µM): 78%
residual activity ([30]; compound 10.0 µM): 67%
residual activity ([31]; compound 0.1 µM): 101%
residual activity ([31]; compound 1.0 µM): 93%
residual activity ([31]; compound 10.0 µM): 87%
residual activity ([32]; compound 1.0 µM): 97%
residual activity ([32]; compound 10.0 µM): 98%
residual activity ([33]; compound 0.1 µM): 101%
residual activity ([33]; compound 1.0 µM): 94%
residual activity ([33]; compound 10.0 µM): 58%
residual activity ([34]; compound 0.1 µM): 40%
residual activity ([34]; compound 1.0 µM): 18%
residual activity ([34]; compound 10.0 µM): 10%
residual activity ([35]; compound 0.1 µM): 101%
residual activity ([35]; compound 1.0 µM): 91%
residual activity ([35]; compound 10.0 µM): 105%
residual activity ([36]; compound 0.1 µM): 90%
residual activity ([36]; compound 1.0 µM): 95%
residual activity ([36]; compound 10.0 µM): 78%
Structure (SMILES): O=C(Nc1ccccc1-c1cn2c(CN3CCNCC3)csc2n1)c1cnc2ccccc2n1
